# Assay results taken from patent US9908912B2, “Triclosan derivatives and uses thereof” (priority 2012, dated 2018).
# Assays:
# [1] = system: Crono. sakazakii ATCC 29544; experiment: MIC in Nutrient Broth No. 2; type: cell-based, Cronobacter sakazakii; conditions: Cronobacter sakazakii, ATCC29544; Nutrient Broth No. 2, 24 h, 37° C.; inducer not specified; read-out: MIC
# Method: (§1) Bacteria species as indicated in Table 1 were incubated for approximately 24 hours at 37° C.
# (§2) The tests were repeated with the addition of inducers. Methyl glycoside was the main inducer used, but other suitable inducers include isopropyl-β-D-thiogalactopyranoside, p-nitrophenyl-α-L-arabinopyranoside and p-nitrophenyl-β-D-xylopyranoside. Concentration of inducer in all cases was 100 μg/ml.
# Ent. cloacae ATCC 13047 = experiment: MIC in Nutrient Broth No. 2; type: cell-based, Enterobacter cloacae; conditions: Enterobacter cloacae, ATCC13047; Nutrient Broth No. 2, 24 h, 37° C.; inducer not specified; read-out: MIC
# Method: as §1, §2
# E. hermanii ATCC 33650 = experiment: MIC in Nutrient Broth No. 2; type: cell-based, Escherichia hermanii; conditions: Atlantibacter hermannii, ATCC33650; Nutrient Broth No. 2, 24 h, 37° C.; inducer not specified; read-out: MIC
# Method: as §1, §2
# [2] = system: Kleb. aerogenes NCTC 88167; experiment: MIC in Nutrient Broth No. 2; type: cell-based, Klebsiella aerogenes; conditions: Klebsiella aerogenes, NCTC88167; Nutrient Broth No. 2, 24 h, 37° C.; inducer not specified; read-out: MIC
# Method: as §1, §2
# [3] = system: Kleb. pneumoniae ATCC 10031; experiment: MIC in Nutrient Broth No. 2; type: cell-based, Klebsiella pneumoniae; conditions: Klebsiella pneumoniae, ATCC10031; Nutrient Broth No. 2, 24 h, 37° C.; inducer not specified; read-out: MIC
# Method: as §1, §2
# [4] = system: Aeromonas hydrophila OCC 778; experiment: MIC in Nutrient Broth No. 2; type: cell-based; conditions: Aeromonas hydrophila, OCC778; Nutrient Broth No. 2, 24 h, 37° C.; inducer not specified; read-out: MIC
# Method: as §1, §2
# [5] = system: Bacillus cereus ATCC 14579; experiment: MIC in Nutrient Broth No. 2; type: cell-based; conditions: Bacillus cereus, ATCC14579; Nutrient Broth No. 2, 24 h, 37° C.; inducer not specified; read-out: MIC
# Method: as §1, §2
# [6] = system: Bacillus subtilis NCTC 10073; experiment: MIC in Nutrient Broth No. 2; type: cell-based; conditions: Bacillus subtilis, NCTC10073; Nutrient Broth No. 2, 24 h, 37° C.; inducer not specified; read-out: MIC
# Method: as §1, §2
# [7] = system: Citrobacter freundii OCC 851; experiment: MIC in Nutrient Broth No. 2; type: cell-based; conditions: Citrobacter freundii, OCC851; Nutrient Broth No. 2, 24 h, 37° C.; inducer not specified; read-out: MIC
# Method: as §1, §2
# [8] = system: Enterobacter aerogenes ATCC 13048; experiment: MIC in Nutrient Broth No. 2; type: cell-based; conditions: Klebsiella aerogenes, ATCC13048; Nutrient Broth No. 2, 24 h, 37° C.; inducer not specified; read-out: MIC
# Method: as §1, §2
# [9] = system: Enterococcus faecalis ATCC 29212; experiment: MIC in Nutrient Broth No. 2; type: cell-based; conditions: Enterococcus faecalis, ATCC29212, 24 h
# Method: as §1, §2
# [10] = system: Enterococcus faecium ATCC 19434; experiment: MIC in Nutrient Broth No. 2; type: cell-based; conditions: Enterococcus faecium, ATCC19434; Nutrient Broth No. 2, 24 h, 37° C.; inducer not specified; read-out: MIC
# Method: as §1, §2
# Escherichia coli = experiment: MIC in Nutrient Broth No. 2; type: cell-based; conditions: Escherichia coli; 8 strains; Nutrient Broth No. 2, 24 h, 37° C.; inducer not specified; read-out: MIC
# Method: as §1, §2
# Hafnia alvei ATCC 13337 = experiment: MIC in Nutrient Broth No. 2; type: cell-based; conditions: Hafnia alvei, ATCC13337; Nutrient Broth No. 2, 24 h, 37° C.; inducer not specified; read-out: MIC
# Method: as §1, §2
# [11] = system: Proteus mirabilis ATCC 12453; experiment: MIC in Nutrient Broth No. 2; type: cell-based; conditions: Proteus mirabilis, ATCC12453; Nutrient Broth No. 2, 24 h, 37° C.; inducer not specified; read-out: MIC
# Method: as §1, §2
# Proteus vulgaris OCC 195 = experiment: MIC in Nutrient Broth No. 2; type: cell-based; conditions: Proteus vulgaris, OCC195; Nutrient Broth No. 2, 24 h, 37° C.; inducer not specified; read-out: MIC
# Method: as §1, §2
# [12] = system: Ps. Aeruginosa ATCC 27853; experiment: MIC in Nutrient Broth No. 2; type: cell-based; conditions: Pseudomonas aeruginosa, ATCC27853; Nutrient Broth No. 2, 24 h, 37° C.; inducer not specified; read-out: MIC
# Method: as §1, §2
# Salmonella = experiment: MIC in Nutrient Broth No. 2; type: cell-based; conditions: Salmonella; 11 strains; Nutrient Broth No. 2, 24 h, 37° C.; inducer not specified; read-out: MIC
# Method: as §1, §2
# [13] = system: Serratia marcescens OCC 217; experiment: MIC in Nutrient Broth No. 2; type: cell-based; conditions: Serratia marcescens, OCC217; Nutrient Broth No. 2, 24 h, 37° C.; inducer not specified; read-out: MIC
# Method: as §1, §2
# Staph. aureus = experiment: MIC in Nutrient Broth No. 2; type: cell-based, Staphylococcus aureus; conditions: Staphylococcus aureus; 8 strains; Nutrient Broth No. 2, 24 h, 37° C.; inducer not specified; read-out: MIC
# Method: as §1, §2
# Staph. epidermidis = experiment: MIC in Nutrient Broth No. 2; type: cell-based, Staphylococcus epidermidis; conditions: Staphylococcus epidermidis; 3 strains; Nutrient Broth No. 2, 24 h, 37° C.; inducer not specified; read-out: MIC
# Method: as §1, §2
# [14] = system: Staph. haemolyticus OCC 2223; experiment: MIC in Nutrient Broth No. 2; type: cell-based, Staphylococcus haemolyticus; conditions: Staphylococcus haemolyticus, OCC2223; Nutrient Broth No. 2, 24 h, 37° C.; inducer not specified; read-out: MIC
# Method: as §1, §2
# [15] = system: Staph. saprophyticus ATCC 15305; experiment: MIC in Nutrient Broth No. 2; type: cell-based, Staphylococcus saprophyticus; conditions: Staphylococcus saprophyticus, ATCC15305; Nutrient Broth No. 2, 24 h, 37° C.; inducer not specified; read-out: MIC
# Method: as §1, §2
# [16] = system: Strep. agalactiae OCC 182; experiment: MIC in Nutrient Broth No. 2; type: cell-based, Streptococcus agalactiae; conditions: Streptococcus agalactiae, OCC182; Nutrient Broth No. 2, 24 h, 37° C.; inducer not specified; read-out: MIC
# Method: as §1, §2
# [17] = system: Strep. pneumoniae ATCC 6305; experiment: MIC in Nutrient Broth No. 2; type: cell-based, Streptococcus pneumoniae; conditions: Streptococcus pneumoniae, ATCC6305; Nutrient Broth No. 2, 24 h, 37° C.; inducer not specified; read-out: MIC
# Method: as §1, §2
# [18] = system: Strep. pyogenes ATCC 19615; experiment: MIC in Nutrient Broth No. 2; type: cell-based, Streptococcus pyogenes; conditions: Streptococcus pyogenes, ATCC19615; Nutrient Broth No. 2, 24 h, 37° C.; inducer not specified; read-out: MIC
# Method: as §1, §2
# Strep. viridans OCC 234 = experiment: MIC in Nutrient Broth No. 2; type: cell-based, Streptococcus viridans; conditions: Streptococcus viridans, OCC234; Nutrient Broth No. 2, 24 h, 37° C.; inducer not specified; read-out: MIC
# Method: as §1, §2
# [19] = system: Bacteria species as indicated in Table 1; experiment: MIC in Nutrient Broth No. 2 (over organisms of Table 1); type: cell-based; conditions: Table 1 organisms
# Method: as §1, §2
structure (smiles),measurement,setting,value
"Oc1cc(Cl)ccc1Oc1ccc(Cl)cc1Cl [Triclosan, 5-chloro-2-(2,4-dichlorophenoxy)phenol]",MIC,[1],0.5 µg/mL
same,MIC,Ent. cloacae ATCC 13047,0.5 µg/mL
same,MIC,E. hermanii ATCC 33650,0.5 µg/mL
same,MIC,[2],0.5 µg/mL
same,MIC,[3],0.1 µg/mL
same,MIC,[4],8 µg/mL
same,MIC,[5],2 µg/mL
same,MIC,[6],1 µg/mL
same,MIC,[7],0.5 µg/mL
same,MIC,[8],0.5 µg/mL
same,MIC,[9],8 µg/mL
same,MIC,[10],4 µg/mL
same,MIC,Escherichia coli,0.1 to 0.5 µg/mL
same,MIC,Hafnia alvei ATCC 13337,0.1 µg/mL
same,MIC,[11],0.5 µg/mL
same,MIC,Proteus vulgaris OCC 195,0.5 µg/mL
same,MIC,[12],32 µg/mL
same,MIC,Salmonella,0.5 to 1 µg/mL
same,MIC,[13],64 µg/mL
same,MIC,Staph. aureus,0.01 µg/mL
same,MIC,Staph. epidermidis,0.01 µg/mL
same,MIC,[14],0.01 µg/mL
same,MIC,[15],0.01 µg/mL
same,MIC,[16],4 µg/mL
same,MIC,[17],1 µg/mL
same,MIC,[18],1 µg/mL
same,MIC,Strep. viridans OCC 234,4 µg/mL
same,susceptibility of the organisms that were tested,[19],inhibited
